The results in this text go back to patent US11572532B2, “Antimicrobial composition” (The Procter & Gamble Company, priority 2019, dated 2023).

The term MBC denotes the smallest concentration meeting the test's criterion for killing.

Structures can show the parent of a compound that is named as a salt.

One data set concerns Enterobacter aerogenes. Nature of the data set: Minimum Biocidal Concentration (MBC) in suspension. It is filed as cell-based. The settings on record: active in 0.5% MEA + 1.5% TEA alkaline composition, no horse serum, contact time 6 minutes; for MBC: Klebsiella aerogenes, 0.1 h, read-out: MBC (ppm) E. aerogenes. The protocol:
(§1) B) Antibacterial Efficacy (Minimum Biocidal Concentration in Suspension):
(§2) The antimicrobial efficacy of the antimicrobial agent in the composition is determined by measuring its Minimum Biocidal Concentration (MBC). The MBC is defined as the lowest absolute concentration of the particular antimicrobial active which provides complete kill (zero bacterial growth).
(§3) The antimicrobial agent was added to the composition at a level of 1000 ppm, or 500 ppm, or 200 ppm, or 100 ppm or 50 ppm, depending on what the Minimum Biocidal Concentration (MBC) is. 200 μL of the antimicrobial hard surface cleaning composition was dosed into one well of row A of a 96 well microtiter plate. Each subsequent well (rows B to G) were dosed with 100 μL of the same hard surface cleaning composition, without the addition of the antimicrobial agent. 100 μL of the antimicrobial hard surface cleaning composition was transferred from row A to row B and mixed. 100 μL of the composition was then transferred from row B to row C and mixed, and the process repeated to row G. As such, the concentration of the antimicrobial agent underwent two-fold dilution in adjacent wells, while the concentration of the other actives in the hard surface cleaning composition remained constant across all the wells in the same column.
(§4) 10 μL of the 10^8CFU/ml bacteria suspension in saline was added to wells A to F of the microtiter plate with row G kept as a nil bacteria control. The final volume in each well was 110 μL, except for row G which comprised 100 μL of the hard surface cleaning composition and no bacteria suspension. Bacterial inoculation to each column was staggered by 30 seconds to allow for equal incubation times in all wells so that the contact time between the bacteria and the antimicrobial active for all samples was 6 mins. After this contact time, 10 μL of each test solution was transferred to 90 μL of neutralizer solution (Modified Letheen Broth +1.5% Polysorbate 80, supplied by BioMérieux) to stop the antimicrobial action of the antimicrobial active matching the stagger of the inoculation. 2 μL of this solution was plated onto a TSA plate matching the stagger of the inoculation so that all samples are exposed to the neutralizer for the same period of time. The plate was incubated at 32.5° C. for 48 h. MBC concentration is taken as the lowest concentration of the antimicrobial active at which no visible colony growth is observed on the TSA plate.

Data set [1] deals with Staphylococcus aureus (S.aureus—ATCC #6538). Nature of the data set: Minimum Biocidal Concentration (MBC) in suspension. It is filed as cell-based. The settings on record: active in 0.5% MEA + 1.5% TEA alkaline composition, no horse serum, contact time 6 minutes; for MBC: Staphylococcus aureus, ATCC6538, 0.1 h, read-out: MBC (ppm) S. aureus. The protocol:
as §1, §2, §3, §4

The nature of data set [2]: pH measurement on the neat composition. It is filed as physicochemical. The note with it: composition of 0.5% MEA + 1.5% TEA with 50 ppm of the active; 25° C. The protocol: The pH is measured on the neat composition, at 25° C., using a pH meter with compatible gel-filled pH probe (such as Sartarius PT-10P meter with Toledo probe part number 52 000 100), calibrated according to the instruction manual.

In the case of `[H]/N=C(\N/C(=N/[H])NCCCCCCNC(=N)NC(=N)Nc1ccc(Cl)cc1)Nc1ccc(Cl)cc1` [Chlorhexidine], the MBC (in the data set on Enterobacter aerogenes; in data set [1]) was 50 µg/mL in each case. The pH in data set [2] is recorded as 11.2.

On to `CCCCCCCCCCCCN(CCCN)CCCN` [N-(3-Aminopropyl)-N-dodecylpropane-1,3-diamine], for which the MBC amounted to 50 µg/mL with Enterobacter aerogenes and 12.5 µg/mL in data set [1]. The pH in data set [2] amounted to 11.5.

As to “N-alkyl dimethyl benzyl ammonium chloride”, the “MBC (ppm) E. aerogenes” value in the data set with Enterobacter aerogenes is 12.5 ppm. Besides, the “MBC (ppm) S. aureus” value in data set [1] is 12.5 ppm. Moreover, the pH in data set [2] is on record as 11.4.

Consider `CCCCCCCCN=c1ccn(CCCCCCCCCCn2ccc(=NCCCCCCCC)cc2)cc1` [Bispyridinium alkane, octenidine dihydrochloride], for which the minimal bactericidal concentration (MBC) was found to be 12.5 µg/mL with Enterobacter aerogenes and 3.13 µg/mL in data set [1]. The pH in data set [2] was 11.4.
